Test results: PubChem BioAssay (NCI)
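GI50: concentration for 50% inhibition of growth. TGI: total growth inhibition.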

Assays:
Experiment in all cases: growth of human tumour cells (NCI), 384-well format
SR leukemia = tested on: SR leukemia
MOLT-4 leukemia = tested on: MOLT-4 leukemia
MDA-MB-231 breast = tested on: MDA-MB-231 breast
RPMI-8226 leukemia = tested on: RPMI-8226 leukemia
HCT-116 colon = tested on: HCT-116 colon
HT29 colon = tested on: HT29 colon
T-47D breast = tested on: T-47D breast
SNB-75 CNS = tested on: SNB-75 CNS
HCC-2998 colon = tested on: HCC-2998 colon
NCI-H460 NSCLC = tested on: NCI-H460 NSCLC
KM12 colon = tested on: KM12 colon
SW-620 colon = tested on: SW-620 colon
CAKI-1 renal = tested on: CAKI-1 renal
OVCAR-4 ovarian = tested on: OVCAR-4 ovarian
CCRF-CEM leukemia = tested on: CCRF-CEM leukemia
HL-60(TB) leukemia = tested on: HL-60(TB) leukemia
COLO 205 colon = tested on: COLO 205 colon
MDA-MB-468 breast = tested on: MDA-MB-468 breast
NCI-H522 lung = tested on: NCI-H522 lung
SF-268 CNS = tested on: SF-268 CNS
HOP-92 NSCLC = tested on: HOP-92 NSCLC
HS 578T breast = tested on: HS 578T breast
HOP-62 NSCLC = tested on: HOP-62 NSCLC
EKVX NSCLC = tested on: EKVX NSCLC
UACC-257 melanoma = tested on: UACC-257 melanoma
NCI/ADR-RES ovarian = tested on: NCI/ADR-RES ovarian
A498 renal = tested on: A498 renal
SN12C renal = tested on: SN12C renal
NCI-H23 lung = tested on: NCI-H23 lung
OVCAR-8 ovarian = tested on: OVCAR-8 ovarian
NCI-H226 lung = tested on: NCI-H226 lung
PC-3 prostate = tested on: PC-3 prostate
SK-OV-3 ovarian = tested on: SK-OV-3 ovarian
U251 glioblastoma = tested on: U251 glioblastoma
A549 NSCLC = tested on: A549 NSCLC
786-0 renal = tested on: 786-0 renal
TK-10 renal = tested on: TK-10 renal
MDA-MB-435 melanoma = tested on: MDA-MB-435 melanoma
SF-295 CNS = tested on: SF-295 CNS
NCI-H322M lung = tested on: NCI-H322M lung
SK-MEL-28 melanoma = tested on: SK-MEL-28 melanoma
SK-MEL-2 melanoma = tested on: SK-MEL-2 melanoma
SF-539 CNS = tested on: SF-539 CNS
SNB-19 CNS = tested on: SNB-19 CNS
SK-MEL-5 melanoma = tested on: SK-MEL-5 melanoma
MALME-3M melanoma = tested on: MALME-3M melanoma
HCT-15 colon = tested on: HCT-15 colon
OVCAR-5 ovarian = tested on: OVCAR-5 ovarian
UACC-62 melanoma = tested on: UACC-62 melanoma
BT-549 breast = tested on: BT-549 breast
RXF 393 renal = tested on: RXF 393 renal
LOX IMVI melanoma = tested on: LOX IMVI melanoma
ACHN renal = tested on: ACHN renal
IGROV1 ovarian = tested on: IGROV1 ovarian
MCF7 breast = tested on: MCF7 breast
OVCAR-3 ovarian = tested on: OVCAR-3 ovarian
DU-145 prostate = tested on: DU-145 prostate
UO-31 renal = tested on: UO-31 renal
M14 melanoma = tested on: M14 melanoma

In the case of `O=C(Nc1ccc(OC(F)(F)Cl)cc1)c1cnc(N2CC[C@@H](O)C2)c(-c2ccn[nH]2)c1`, the GI50 (SR leukemia) is reported as 1940 nM, the TGI (SR leukemia) is reported as 4.74 µM and the GI50 (MOLT-4 leukemia) is reported as 5.82 µM. The TGI (MOLT-4 leukemia) was 18.3 µM, the GI50 (MDA-MB-231 breast) was 10.4 µM and the TGI (MDA-MB-231 breast) was 22.5 µM. It also gave a GI50 (RPMI-8226 leukemia) of 3.27 µM, a TGI (RPMI-8226 leukemia) of 12.2 µM and a GI50 (HCT-116 colon) of 10.9 µM. The TGI (HCT-116 colon) was 23.7 µM, the GI50 (HT29 colon) was 2570 nM and the TGI (HT29 colon) was 6.27 µM. For the same compound, the GI50 (T-47D breast) was 2970 nM, the TGI (T-47D breast) was 10.7 µM and the GI50 (SNB-75 CNS) was 7.86 µM. The TGI (SNB-75 CNS) was 20.9 µM, the GI50 (HCC-2998 colon) was 2850 nM and the TGI (HCC-2998 colon) was 8.48 µM. It also gave a GI50 (NCI-H460 NSCLC) of 3.95 µM, a TGI (NCI-H460 NSCLC) of 13.3 µM and a GI50 (KM12 colon) of 4.57 µM. It also gave a TGI (KM12 colon) of 15.4 µM, a GI50 (SW-620 colon) of 7.75 µM and a TGI (SW-620 colon) of 19.7 µM. For the same compound, the GI50 (CAKI-1 renal) was 8.07 µM, the TGI (CAKI-1 renal) was 21.1 µM and the GI50 (OVCAR-4 ovarian) was 6.92 µM. The TGI (OVCAR-4 ovarian) was 26.9 µM, the GI50 (CCRF-CEM leukemia) was 3.01 µM and the TGI (CCRF-CEM leukemia) was 10.6 µM. The GI50 (HL-60(TB) leukemia) was 2770 nM, the TGI (HL-60(TB) leukemia) was 6.75 µM and the GI50 (COLO 205 colon) was 5.01 µM. It also gave a TGI (COLO 205 colon) of 16.6 µM, a GI50 (MDA-MB-468 breast) of 3.89 µM and a TGI (MDA-MB-468 breast) of 15 µM. The GI50 (NCI-H522 lung) was 11.7 µM, the TGI (NCI-H522 lung) was 24.3 µM and the GI50 (SF-268 CNS) was 10.6 µM. For the same compound, the TGI (SF-268 CNS) was 23.4 µM, the GI50 (HOP-92 NSCLC) was 13.7 µM and the TGI (HOP-92 NSCLC) was 26.8 µM. The GI50 (HS 578T breast) was 12.6 µM, the TGI (HS 578T breast) was 25.3 µM and the GI50 (HOP-62 NSCLC) was 9.4 µM. It also gave a TGI (HOP-62 NSCLC) of 22.7 µM, a GI50 (EKVX NSCLC) of 14 µM and a TGI (EKVX NSCLC) of 28.8 µM. The GI50 (UACC-257 melanoma) was 9.12 µM, the TGI (UACC-257 melanoma) was 22.5 µM and the GI50 (NCI/ADR-RES ovarian) was 19.3 µM. The TGI (NCI/ADR-RES ovarian) was 41.9 µM, the GI50 (A498 renal) was 13.6 µM and the TGI (A498 renal) was 26.8 µM. For the same compound, the GI50 (SN12C renal) was 13.7 µM, the TGI (SN12C renal) was 26.8 µM and the GI50 (NCI-H23 lung) was 12.3 µM. The TGI (NCI-H23 lung) was 25.9 µM, the GI50 (OVCAR-8 ovarian) was 6.65 µM and the TGI (OVCAR-8 ovarian) was 19.5 µM. The GI50 (NCI-H226 lung) was 4.76 µM, the TGI (NCI-H226 lung) was 17 µM and the GI50 (PC-3 prostate) was 13.6 µM. The TGI (PC-3 prostate) was 26.8 µM, the GI50 (SK-OV-3 ovarian) was 16 µM and the TGI (SK-OV-3 ovarian) was 30.7 µM. It also gave a GI50 (U251 glioblastoma) of 7.26 µM, a TGI (U251 glioblastoma) of 20 µM and a GI50 (A549 NSCLC) of 13.3 µM. The TGI (A549 NSCLC) was 29.7 µM, the GI50 (786-0 renal) was 5.38 µM and the TGI (786-0 renal) was 17.2 µM. The GI50 (TK-10 renal) was 10.8 µM, the TGI (TK-10 renal) was 26.4 µM and the GI50 (MDA-MB-435 melanoma) was 12 µM. The TGI (MDA-MB-435 melanoma) was 24.8 µM, the GI50 (SF-295 CNS) was 11.1 µM and the TGI (SF-295 CNS) was 23.2 µM. The GI50 (NCI-H322M lung) was 12.3 µM, the TGI (NCI-H322M lung) was 25.1 µM and the GI50 (SK-MEL-28 melanoma) was 15 µM. It also gave a TGI (SK-MEL-28 melanoma) of 28.5 µM, a GI50 (SK-MEL-2 melanoma) of 15.4 µM and a TGI (SK-MEL-2 melanoma) of 28.8 µM. For the same compound, the GI50 (SF-539 CNS) was 10.1 µM, the TGI (SF-539 CNS) was 22.5 µM and the GI50 (SNB-19 CNS) was 14.5 µM. The TGI (SNB-19 CNS) was 27.9 µM, the GI50 (SK-MEL-5 melanoma) was 4.81 µM and the TGI (SK-MEL-5 melanoma) was 17.2 µM. The GI50 (MALME-3M melanoma) was 6.97 µM, the TGI (MALME-3M melanoma) was 20.5 µM and the GI50 (HCT-15 colon) was 2940 nM. The TGI (HCT-15 colon) was 10.9 µM, the GI50 (OVCAR-5 ovarian) was 12.1 µM and the TGI (OVCAR-5 ovarian) was 25.7 µM. For the same compound, the GI50 (UACC-62 melanoma) was 11.6 µM, the TGI (UACC-62 melanoma) was 23.9 µM and the GI50 (BT-549 breast) was 14.8 µM. For the same compound, the TGI (BT-549 breast) was 28.2 µM, the GI50 (RXF 393 renal) was 3.84 µM and the TGI (RXF 393 renal) was 14.1 µM. It also gave a GI50 (LOX IMVI melanoma) of 7.26 µM, a TGI (LOX IMVI melanoma) of 20.2 µM and a GI50 (ACHN renal) of 12.1 µM. The TGI (ACHN renal) was 29.4 µM, the GI50 (IGROV1 ovarian) was 10.9 µM and the TGI (IGROV1 ovarian) was 23.6 µM. For the same compound, the GI50 (MCF7 breast) was 9.56 µM, the TGI (MCF7 breast) was 21.9 µM and the GI50 (OVCAR-3 ovarian) was 11.1 µM. The TGI (OVCAR-3 ovarian) was 23.3 µM, the GI50 (DU-145 prostate) was 17.7 µM and the TGI (DU-145 prostate) was 32.8 µM. It also gave a GI50 (UO-31 renal) of 11.6 µM, a TGI (UO-31 renal) of 24.2 µM and a GI50 (M14 melanoma) of 10.5 µM. It also gave a TGI (M14 melanoma) of 22.9 µM.
